Legend:
[1] = pre-clinical studies; cited from earlier work
[2] = pre-clinical studies; cited from earlier work; remark: listed apart in the source
[3] = Pharmacokinetics of SHR-A1811, total antibody and free payload (non-compartmental); conditions: for Tmax: median (range)
HER2-mutant NSCLC = conditions: pretreated patients with HER2-mutant NSCLC; cited from earlier work
[4] = multiple dosing (cycle 3), SHR-A1811 […] (n=3), PK data available for 1 patient
[5] = single dosing (cycle 1), SHR-A1811 8.0 mg/kg (n=3), mean (SD)

For `CC[C@@]1(O)C(=O)OCc2c1cc1n(c2=O)Cc2c-1nc1cc(F)c(C)c3c1c2[C@@H](NC(=O)[C@H](O)C1CC1)CC3` [Free payload], the “membrane permeability compared with the payload of T-DXd” value [1] is listed as “superior”, the “cytotoxicity compared with the payload of T-DXd” value [2] is listed as “superior” and the “exposure (Cmax, AUC0−21d, AUC0−t, and AUC0−∞) versus dose” value ([3]; after single dosing, over the tested dose range) is listed as “increased in a dose-dependent manner”. The “plasma exposure compared with ADC and TAb” value ([3]; all studied dose levels) was “much lower”, the t1/2 [3, 4] was 5.6 (NC) day and the Tmax [3, 4] was 0.105 (0.1050-0.1050) day. For the same compound, the t1/2 ([3]; multiple dosing (cycle 3), SHR-A1811 […] (n=3), mean (SD)) was 5.7 (0.5) day, the Tmax ([3]; multiple dosing (cycle 3), SHR-A1811 […] (n=3)) was 0.124 (0.1150-0.1320) day and the t1/2 ([3]; multiple dosing (cycle 3), SHR-A1811 […] (n=10), mean (SD)) was 6.5 (1.6) day. The Tmax ([3]; multiple dosing (cycle 3), SHR-A1811 […] (n=10)) was 0.117 (0.1050-0.1190) day, the t1/2 ([3]; multiple dosing (cycle 3), SHR-A1811 […] (n=41), mean (SD)) was 6.3 (1.0) day and the Tmax ([3]; multiple dosing (cycle 3), SHR-A1811 […] (n=41)) was 0.104 (0.0806-7.0200) day. For the same compound, the AUC0-21d [3, 5] was 23.5 (7.4) day·ng/mL, the AUC0-t [3, 5] was 22.8 (6.2) day·ng/mL and the “AUC0-∞” value [3, 5] was 25.2 (7.6) day·ng/mL. The Cmax [3, 5] was 3.9 (1.0) ng/mL, the MRT [3, 5] was 7.6 (1.8) day and the t1/2 [3, 5] was 5.5 (1.1) day. For the same compound, the Tmax ([3]; single dosing (cycle 1), SHR-A1811 8.0 mg/kg (n=3)) was 1.0600 (0.3960-1.0600) day, the t1/2 ([3]; single dosing (cycle 1), SHR-A1811 […] (n=10), mean (SD)) was 5.9 (1.1) day and the Tmax ([3]; single dosing (cycle 1), SHR-A1811 […] (n=10)) was 0.3990 (0.1470-1.0200) day. The t1/2 ([3]; single dosing (cycle 1), SHR-A1811 […] (n=41), mean (SD)) was 5.2 (0.6) day and the Tmax ([3]; single dosing (cycle 1), SHR-A1811 […] (n=41)) was 0.3960 (0.0236-1.0600) day.
In the case of Trastuzumab emtansine [T-DM1], the ORR (HER2-mutant NSCLC) is listed as 44% and the “median DoR” value (HER2-mutant NSCLC) is listed as 4 months.
